{"source": "patent US20130011411A1", "about": "“METHODS AND COMPOSITIONS FOR THE DIAGNOSIS, PROGNOSIS, AND TREATMENT OF CANCER” (priority 2010, published 2013)", "system": "breast cancer cell lines", "test": "DACH1 mRNA expression after methylation inhibitor treatment", "format": "cell-based", "conditions": "different breast cancer cell lines; data not shown", "text": "DNA methylation is a common mechanism leading to tumor suppressor inactivation.", "data": [{"smiles": "Nc1ncn([C@H]2C[C@H](O)[C@@H](CO)O2)c(=O)n1", "note": "[5-aza-2′-deoxycytidine]", "values": [{"measurement": "DACH1 mRNA expression", "value": "induced DACH1 mRNA expression"}]}]}
